Measured values from US12655142B2 (Merck Patent GmbH, priority 2019, dated 2026).

What was measured:
c-Kit(V654A) = biological target: T1, c-Kit(V654A) (Homo sapiens, UniProt P10721, V654A); test: c-Kit(V654A) assay (33P-ATP filter binding kinase assay); type: biochemical; conditions: recombinant human c-Kit aa 544-end V654A, ATP 200 μM
T1 construct: recombinant human c-Kit, amino acids 544-end containing the V654A mutation; GST (N)
Experimental: c-Kit(V654A) (N-terminal GST-tagged, recombinant human c-Kit, amino acids 544-end containing the V654A mutation) is incubated with 8 mM MOPS pH 7.0, 0.2 mM EDTA, 250 μM GGMEDIYEFMGGKKK, 10 mM MgAcetate and [gamma-33P-ATP] (specific activity approx. 500 cpm/pmol, concentration 200 μM). The reaction is initiated by the addition of the MgATP mix. After incubation for 40 minutes at room temperature, the reaction is stopped by the addition of 3% phosphoric acid solution. 10 μL of the reaction is then spotted onto a P30 filtermat and washed three times for 5 minutes in 75 mM phosphoric acid and once in methanol prior to drying and scintillation counting.

[1] = biological target: T2, GIST430/654 cell line expressing mutated constitutively active cKIT receptor tyrosine kinase (Δ560-576 deletion and V654A point mutation) (Homo sapiens, UniProt P10721, DEL560-576/V654A); test: Cellular cKIT autophosphorylation (phospho-Y307-cKIT, Luminex bead assay) in GIST430/654 cells; type: cell-based; conditions: compounds 45 min, read-out: GIST 430/654 IC50
T2 construct: endogenous in cells; host or cells: GIST430/654 cells
Experimental: Assay Principle for Cellular Testing of cKIT Mutant Inhibitors
The GIST430 cell line expressing constitutive active cKIT receptor tyrosine kinase (Δ560-576 deletion) and the Imatinib resistant GIST430/654 cell line expressing mutated constitutively active cKIT receptor tyrosine kinase (Δ560-576 deletion and V654A point mutation) were employed for assessing cellular potency of compounds. Cellular activity of mutant cKIT was determined by the degree of cKIT autophosphorylation at tyrosine 307 using a Luminex-based bead assay. GIST430 cells were plated with 22,000 cells per well of a 96-well plate in 100 μl medium (85% IMDM/15% FCS) and GIST430/654 cells were plated with 25,000 cells per well of a 96-well plate in 100 μl medium (85% IMDM/15% FCS supplemented with 100 nM Imatinib). At the following day compounds were added in a serial dilution for 45 min. Then, cells were lysed with 90 μl lysis buffer (20 mM Hepes pH 7.5, 200 mM NaCl, 1.5 mM MgCl2×6H2O, 0.4 mM EDTA, 1% Triton-X-100, 1% Phosphatase-Inhibitor II, 20 mM β-Glycerolphosphat, 0.1% Protease-Inhibitor Cocktail III, 0.01% Benzonase) and lysates were cleared by centrifugation through a 96-well filter plate (0.65 μm). Samples were incubated with Luminex-beads which were coupled with an anti-total cKIT antibody overnight at 4° C. under gentle agitation. For detection of phospho-Y307-cKIT a phosphospecific antibody and a species-specific PE-labeled secondary antibody were added. The amount of phospho-Y307-cKIT was determined in a Luminex 200 instrument measuring 100 events per well within 60 seconds.
Counts from samples treated with compounds were calculated as percent of control from solvent treated (0.3% DMSO) samples. Dose-response curves were fitted and IC50 values were determined using Genedata Screener software.

T2 sequence (P10721 with tags, fused parts or gaps DEL560-576/V654A): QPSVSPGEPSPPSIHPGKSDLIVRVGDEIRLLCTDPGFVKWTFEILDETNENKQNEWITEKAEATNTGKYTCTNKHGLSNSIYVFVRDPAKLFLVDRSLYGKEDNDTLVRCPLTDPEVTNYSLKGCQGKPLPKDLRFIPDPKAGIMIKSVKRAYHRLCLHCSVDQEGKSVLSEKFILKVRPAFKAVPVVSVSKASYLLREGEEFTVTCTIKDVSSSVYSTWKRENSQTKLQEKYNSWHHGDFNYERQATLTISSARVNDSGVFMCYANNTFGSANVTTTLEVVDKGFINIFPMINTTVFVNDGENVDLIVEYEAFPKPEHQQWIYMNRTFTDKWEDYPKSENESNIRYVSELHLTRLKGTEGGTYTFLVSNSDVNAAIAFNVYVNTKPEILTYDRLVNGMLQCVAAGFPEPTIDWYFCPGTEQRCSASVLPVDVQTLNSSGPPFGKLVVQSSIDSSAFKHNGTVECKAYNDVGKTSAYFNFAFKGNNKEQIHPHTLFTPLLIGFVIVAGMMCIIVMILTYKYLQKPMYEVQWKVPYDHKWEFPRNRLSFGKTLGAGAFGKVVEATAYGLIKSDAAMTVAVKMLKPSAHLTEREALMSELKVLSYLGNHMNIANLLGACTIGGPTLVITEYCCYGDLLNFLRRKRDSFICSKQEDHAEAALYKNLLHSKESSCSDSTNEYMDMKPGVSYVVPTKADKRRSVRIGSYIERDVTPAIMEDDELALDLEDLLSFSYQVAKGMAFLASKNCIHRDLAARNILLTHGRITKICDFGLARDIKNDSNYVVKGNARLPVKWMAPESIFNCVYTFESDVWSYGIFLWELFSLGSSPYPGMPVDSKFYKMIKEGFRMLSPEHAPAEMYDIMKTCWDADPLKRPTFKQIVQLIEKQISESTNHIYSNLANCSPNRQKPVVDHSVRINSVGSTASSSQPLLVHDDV
T1 sequence (P10721 544-976 V654A): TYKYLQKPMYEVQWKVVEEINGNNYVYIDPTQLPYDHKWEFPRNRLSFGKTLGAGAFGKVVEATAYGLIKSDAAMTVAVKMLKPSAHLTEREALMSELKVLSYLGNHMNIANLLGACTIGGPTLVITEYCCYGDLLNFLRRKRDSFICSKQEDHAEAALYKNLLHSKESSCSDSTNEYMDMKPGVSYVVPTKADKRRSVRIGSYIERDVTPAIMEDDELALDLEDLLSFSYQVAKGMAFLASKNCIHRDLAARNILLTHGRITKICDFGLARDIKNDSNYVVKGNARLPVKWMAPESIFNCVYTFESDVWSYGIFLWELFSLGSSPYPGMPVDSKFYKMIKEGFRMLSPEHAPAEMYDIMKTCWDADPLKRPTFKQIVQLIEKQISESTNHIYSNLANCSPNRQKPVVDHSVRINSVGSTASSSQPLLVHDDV

Structure (SMILES)	IC50 (c-Kit(V654A)) [nM]	IC50 [1] [nM]
COc1ccn2c(-c3cc(NCc4ccc(-c5ccccc5)cc4)ncn3)cnc2c1 [A3, N-({[1,1′-biphenyl]-4-yl}methyl)-6-{7-methoxyimidazo[1,2-a]pyridin-3-yl}pyrimidin-4-amine]	5.5	2600
Cn1cc(-c2ccc(CNc3cc(-c4cnc5cc(C(F)(F)F)ccn45)ncn3)cc2)cn1 [A10, N-{[4-(1-methyl-1H-pyrazol-4-yl)phenyl]methyl}-6-[7-(trifluoromethyl)imidazo[1,2-a]pyridin-3-yl]pyrimidin-4-amine]	13	1000
COc1ccn2c(-c3cc(NCc4ccc(C(=O)N(C)C)cc4)ncn3)cnc2c1 [A13, 4-{[(6-{7-methoxyimidazo[1,2-a]pyridin-3-yl}pyrimidin-4-yl)amino]methyl}-N,N-dimethylbenzamide]	100	2300
Cn1ccc(-c2ccc(CNc3cc(-c4cnc5ccccn45)ncn3)cc2)n1 [A14, (6-Imidazo[1,2-a]24yridine-3-yl-pyrimidin-4-yl)-[4-(1-methyl-1H-pyrazol-3-yl)-benzyl]-amine]	5.5	200
COc1ccn2c(-c3cc(NCc4ccc(-c5cn(C)cn5)cc4)ncn3)cnc2c1 [A20, [6-(7-methoxy-imidazo[1,2-a]pyridin-3-yl)-pyrimidin-4-yl]-[4-(1-methyl-1H-imidazol-4-yl)-benzyl]-amine]	55	650
COc1ccn2c(-c3cc(NCc4ccc(-c5cnn(CCN6CCOCC6)c5)cc4)ncn3)cnc2c1 [A22, [6-(7-methoxy-imidazo[1,2-a]pyridin-3-yl)-pyrimidin-4-yl]-{4-[1-(2-morpholin-4-yl-ethyl)-1H-pyrazol-4-yl]-benzyl}-amine]	110	
CCn1cc(-c2ccc(CNc3cc(-c4cnc5cc(OC)ccn45)ncn3)cc2)cn1 [A23, [4-(1-ethyl-1H-pyrazol-4-yl)-benzyl]-[6-(7-methoxy-imidazo[1,2-a]pyridin-3-yl)-pyrimidin-4-yl]-amine]	6.2	66
COc1ccn2c(-c3cc(NCc4ccc(-c5cnn(CCN6CCCC6)c5)cc4)ncn3)cnc2c1 [A24, [6-(7-methoxy-imidazo[1,2-a]pyridin-3-yl)-pyrimidin-4-yl]-{4-[1-(2-pyrrolidin-1-yl-ethyl)-1H-pyrazol-4-yl]-benzyl}-amine]	160	
COc1ccn2c(-c3cc(NCc4ccc(-c5cn(C)nc5C)cc4)ncn3)cnc2c1 [A25, [4-(1,3-dimethyl-1H-pyrazol-4-yl)-benzyl]-[6-(7-methoxy-imidazo[1,2-a]pyridin-3-yl)-pyrimidin-4-yl]-amine]	26	210
COc1ccn2c(-c3cc(NCc4ccc(-n5cnc6ccccc65)cc4)ncn3)cnc2c1 [A27, N-{[4-(1H-1,3-benzodiazol-1-yl)phenyl]methyl}-6-{7-methoxyimidazo[1,2-a]pyridin-3-yl}pyrimidin-4-amine]	63	
COc1ccn2c(-c3cc(NCc4cccc(-c5cnn(C)c5)c4)ncn3)cnc2c1 [A28, [6-(7-methoxy-imidazo[1,2-a]pyridin-3-yl)-pyrimidin-4-yl]-[3-(1-methyl-1H-pyrazol-4-yl)-benzyl]-amine]	35	1400
COc1ccn2c(-c3cc(NCc4ccc(-c5cnn(C)c5)c(F)c4)ncn3)cnc2c1 [A29, N-{[3-fluoro-4-(1-methyl-1H-pyrazol-4-yl)phenyl]methyl}-6-{7-methoxyimidazo[1,2-a]pyridin-3-yl}pyrimidin-4-amine]	15	120
COc1ccn2c(-c3cc(NCc4ccc(-c5cnc(C)nc5N)cc4)ncn3)cnc2c1 [A43, 5-(4-{[(6-{7-methoxyimidazo[1,2-a]pyridin-3-yl}pyrimidin-4-yl)amino]methyl}phenyl)-2-methylpyrimidin-4-amine]	260	
COc1ccn2c(-c3cc(NCc4ccc(-c5cnn(C)n5)nc4)ncn3)cnc2c1 [A45, [6-(7-methoxy-imidazo[1,2-a]pyridin-3-yl)-pyrimidin-4-yl]-[6-(2-methyl-2H-[1,2,3]triazol-4-yl)-pyridin-3-ylmethyl]-amine]	130	
COCC(COC)Oc1ccn2c(-c3cc(NCc4ccc(-c5cnn(C)c5)cc4)ncn3)cnc2c1 [A54, {6-[7-(2-methoxy-1-methoxymethyl-ethoxy)-imidazo[1,2-a]pyridin-3-yl]-pyrimidin-4-yl}-[4-(1-methyl-1H-pyrazol-4-yl)-benzyl]-amine]	120	

Next, values leading:

IC50 (c-Kit(V654A)) [nM]	IC50 [1] [nM]	Structure (SMILES)
110		Cn1cc(-c2ccc(CNc3cc(-c4cnc5cc(OCc6nccn6C)ccn45)ncn3)cc2)nn1 [A110, {6-[7-(1-methyl-1H-imidazol-2-ylmethoxy)-imidazo[1,2-a]pyridin-3-yl]-pyrimidin-4-yl}-[4-(1-methyl-1H-[1,2,3]triazol-4-yl)-benzyl]-amine]
88		COc1ccn2c(-c3cc(NCc4ccc(-c5cnn(CC6CNC6)c5)cc4)ncn3)cnc2c1 [A159, N-[(4-{1-[(azetidin-3-yl)methyl]-1H-pyrazol-4-yl}phenyl)methyl]-6-{7-methoxyimidazo[1,2-a]pyridin-3-yl}pyrimidin-4-amine]
58		COc1ccn2c(-c3cc(OC(C)c4ccc(-c5cnn(C)c5)cc4)ncn3)cnc2c1 (centres unmarked) [A171, 7-methoxy-3-(6-{1-[4-(1-methyl-1H-pyrazol-4-yl)-phenyl]-ethoxy}-pyrimidin-4-yl)-imidazo[1,2-a]pyridine]
260		COc1ccn2c(-c3cc(NCc4ccc(-c5cnc(CO)n5C)cc4)ncn3)cnc2c1 [A174, [5-(4-{[6-(7-Methoxy-imidazo[1,2-a]pyridin-3-yl)-pyrimidin-4-ylamino]-methyl}-phenyl)-1-methyl-1H-imidazol-2-yl]-methanol]
8.7		Cn1cc(-c2ccc(CNc3cc(-c4cnc5cc(OCCN6CCC67COC7)ccn45)ncn3)cc2)cn1 [A207, [4-(1-methyl-1H-pyrazol-4-yl)-benzyl]-(6-{7-[2-(6-oxa-1-aza-spiro[3.3]hept-1-yl)-ethoxy]-imidazo[1,2-a]pyridin-3-yl}-pyrimidin-4-yl)-amine]
7.3		Cn1cc(-c2ccc(CNc3cc(-c4cnc5cc(OCCCN6CC(F)C6)ccn45)ncn3)cc2)cn1 [A240, (6-{7-[3-(3-fluoro-azetidin-1-yl)-propoxy]-imidazo[1,2-a]pyridin-3-yl}-pyrimidin-4-yl)-[4-(1-methyl-1H-pyrazol-4-yl)-benzyl]-amine]
6.5		Cn1cc(-c2ccc(CNc3cc(-c4cnc5cc(OCCCN6CC[S+]([O-])CC6)ccn45)ncn3)cc2)cn1 [A241, [4-(1-methyl-1H-pyrazol-4-yl)-benzyl]-(6-{7-[3-(1-oxo-1|4-thiomorpholin-4-yl)-propoxy]-imidazo[1,2-a]pyridin-3-yl}-pyrimidin-4-yl)-amine]
21		Cn1ncc(-c2ccc(CNc3cc(-c4cnc5cc(N6CCN(C7COC7)CC6)ccn45)ncn3)cc2)n1 [A244, [4-(2-methyl-2H-[1,2,3]triazol-4-yl)-benzyl]-{6-[7-(4-oxetan-3-yl-piperazin-1-yl)-imidazo[1,2-a]pyridin-3-yl]-pyrimidin-4-yl}-amine]
6.5		Cn1ncc(-c2ccc(CNc3cc(-c4cnc5cc(OCCCN6CCN(C7CC7)CC6)ccn45)ncn3)cc2)n1 [A253, (6-{7-[3-(4-cyclopropyl-piperazin-1-yl)-propoxy]-imidazo[1,2-a]pyridin-3-yl}-pyrimidin-4-yl)-[4-(2-methyl-2H-[1,2,3]triazol-4-yl)-benzyl]-amine]
24		Cn1cc(-c2ccc(CNc3cc(-c4cnc5cc(OCC6CN(CC(F)(F)F)C6)ccn45)ncn3)cc2)cn1 [A254, N-{[4-(1-methyl-1H-pyrazol-4-yl)phenyl]methyl}-6-(7-{[1-(2,2,2-trifluoroethyl)azetidin-3-yl]methoxy}imidazo[1,2-a]pyridin-3-yl)pyrimidin-4-amine]
12		CN1CC(F)(COc2ccn3c(-c4cc(NCc5ccc(-c6cnn(C)c6)cc5)ncn4)cnc3c2)C1 [A256, 6-{7-[(3-fluoro-1-methylazetidin-3-yl)methoxy]imidazo[1,2-a]pyridin-3-yl}-N-{[4-(1-methyl-1H-pyrazol-4-yl)phenyl]methyl}pyrimidin-4-amine]
